Laboratory results as given in ChEMBL document CHEMBL3044696, “Synthesis, antimalarial-, and antibacterial activity evaluation of some new 4-aminoquinoline derivatives” (2013).

What was measured:
Bacillus cereus [1] = assay: Antibacterial activity against Bacillus cereus ATCC 10876 assessed as growth inhibition at 25 ug/disk after 24 hr by Kirby-Bauer disk diffusion method; assay type: functional; settings: ATCC 10876, 24 h, read-out: DIZ
Bacillus subtilis [2] = assay: Antibacterial activity against Bacillus subtilis ATCC 11774 assessed as growth inhibition at 25 ug/disk after 24 hr by Kirby-Bauer disk diffusion method; assay type: functional; settings: ATCC 11774, 24 h, read-out: DIZ
Bacillus subtilis [3] = assay: Antibacterial activity against Bacillus subtilis ATCC 11774 assessed as growth inhibition at 50 ug/disk after 24 hr by Kirby-Bauer disk diffusion method; assay type: functional; settings: ATCC 11774, 24 h, read-out: DIZ
Plasmodium falciparum [4] = assay: Antimalarial activity against chloroquine-sensitive Plasmodium falciparum 3D7 infected human RBC assessed as dead ring and trophozoite stage of parasite at 50 ug/mL after 40 hr by Giemsa staining-based light microscopic analysis relative to control; assay type: functional
Pseudomonas aeruginosa [5] = assay: Antibacterial activity against Pseudomonas aeruginosa ATCC 10662 assessed as growth inhibition at 25 ug/disk after 24 hr by Kirby-Bauer disk diffusion method; assay type: functional; settings: ATCC 10662, 24 h, read-out: DIZ
Klebsiella pneumoniae [6] = assay: Antibacterial activity against Klebsiella pneumoniae ATCC 33495 assessed as growth inhibition at 25 ug/disk after 24 hr by Kirby-Bauer disk diffusion method; assay type: functional; settings: ATCC 33495, 24 h, read-out: DIZ
Escherichia coli [7] = assay: Antibacterial activity against Escherichia coli ATCC 10536 assessed as growth inhibition at 25 ug/disk after 24 hr by Kirby-Bauer disk diffusion method; assay type: functional; settings: ATCC 10536, 24 h, read-out: DIZ
Staphylococcus aureus [8] = assay: Antibacterial activity against Staphylococcus aureus ATCC BAA 1026 assessed as growth inhibition at 25 ug/disk after 24 hr by Kirby-Bauer disk diffusion method; assay type: functional; settings: ATCC BAA 1026, 24 h, read-out: DIZ
Klebsiella pneumoniae [9] = assay: Antibacterial activity against Klebsiella pneumoniae ATCC 33495 assessed as growth inhibition at 50 ug/disk after 24 hr by Kirby-Bauer disk diffusion method; assay type: functional; settings: ATCC 33495, 24 h, read-out: DIZ
Escherichia coli [10] = assay: Antibacterial activity against Escherichia coli ATCC 10536 assessed as growth inhibition at 50 ug/disk after 24 hr by Kirby-Bauer disk diffusion method; assay type: functional; settings: ATCC 10536, 24 h, read-out: DIZ
Staphylococcus aureus [11] = assay: Antibacterial activity against Staphylococcus aureus ATCC BAA 1026 assessed as growth inhibition at 50 ug/disk after 24 hr by Kirby-Bauer disk diffusion method; assay type: functional; settings: ATCC BAA 1026, 24 h, read-out: DIZ
Plasmodium falciparum [12] = assay: Antimalarial activity against chloroquine-sensitive Plasmodium falciparum 3D7 infected human RBC assessed as dead ring and trophozoite stage of parasite at 0.4 ug/mL after 40 hr by Giemsa staining-based light microscopic analysis relative to control
Pseudomonas aeruginosa [13] = assay: Antibacterial activity against Pseudomonas aeruginosa ATCC 10662 assessed as growth inhibition at 50 ug/disk after 24 hr by Kirby-Bauer disk diffusion method; assay type: functional; settings: ATCC 10662, 24 h, read-out: DIZ
Pseudomonas aeruginosa [14] = assay: Antibacterial activity against Pseudomonas aeruginosa ATCC 10662 assessed as growth inhibition at 5 ug/disk after 24 hr by Kirby-Bauer disk diffusion method; assay type: functional; settings: ATCC 10662, 24 h, read-out: DIZ
Klebsiella pneumoniae [15] = assay: Antibacterial activity against Klebsiella pneumoniae ATCC 33495 assessed as growth inhibition at 5 ug/disk after 24 hr by Kirby-Bauer disk diffusion method; assay type: functional; settings: ATCC 33495, 24 h, read-out: DIZ
Escherichia coli [16] = assay: Antibacterial activity against Escherichia coli ATCC 10536 assessed as growth inhibition at 5 ug/disk after 24 hr by Kirby-Bauer disk diffusion method; assay type: functional; settings: ATCC 10536, 24 h, read-out: DIZ
Staphylococcus aureus [17] = assay: Antibacterial activity against Staphylococcus aureus ATCC BAA 1026 assessed as growth inhibition at 5 ug/disk after 24 hr by Kirby-Bauer disk diffusion method; assay type: functional; settings: ATCC BAA 1026, 24 h, read-out: DIZ
Bacillus cereus [18] = assay: Antibacterial activity against Bacillus cereus ATCC 10876 assessed as growth inhibition at 5 ug/disk after 24 hr by Kirby-Bauer disk diffusion method; assay type: functional; settings: ATCC 10876, 24 h, read-out: DIZ
Bacillus subtilis [19] = assay: Antibacterial activity against Bacillus subtilis ATCC 11774 assessed as growth inhibition at 5 ug/disk after 24 hr by Kirby-Bauer disk diffusion method; assay type: functional; settings: ATCC 11774, 24 h, read-out: DIZ

SMILES	zone of inhibition at 25 µg/disc (Bacillus cereus [1])	zone of inhibition at 25 µg/disc (Bacillus subtilis [2])	zone of inhibition at 50 µg/disc (Bacillus subtilis [3])	Activity (Plasmodium falciparum [4])	zone of inhibition at 25 µg/disc (Pseudomonas aeruginosa [5])	zone of inhibition at 25 µg/disc (Klebsiella pneumoniae [6])	zone of inhibition at 25 µg/disc (Escherichia coli [7])	zone of inhibition at 25 µg/disc (Staphylococcus aureus [8])	zone of inhibition at 50 µg/disc (Klebsiella pneumoniae [9])	zone of inhibition at 50 µg/disc (Escherichia coli [10])	zone of inhibition at 50 µg/disc (Staphylococcus aureus [11])	Activity (Plasmodium falciparum [12])	zone of inhibition at 50 µg/disc (Pseudomonas aeruginosa [13])	zone of inhibition at 5 µg/disc (Pseudomonas aeruginosa [14])	zone of inhibition at 5 µg/disc (Klebsiella pneumoniae [15])	zone of inhibition at 5 µg/disc (Escherichia coli [16])	zone of inhibition at 5 µg/disc (Staphylococcus aureus [17])	zone of inhibition at 5 µg/disc (Bacillus cereus [18])	zone of inhibition at 5 µg/disc (Bacillus subtilis [19])
CN(C)c1ccc(C2SCCC(=O)N2CCCNc2ccnc3cc(Cl)ccc23)cc1 (centres undefined)	14 mm	14.3 mm	23.7 mm	25%	13.7 mm	14.1 mm	14.3 mm	13.9 mm	24.1 mm	23.9 mm	23.9 mm	–	–	–	–	–	–	–	–
CCN(CC)CCCC(C)Nc1ccnc2cc(Cl)ccc12 (centres undefined) [CHLOROQUINE]	–	–	–	–	–	–	–	–	–	–	–	67%	–	–	–	–	–	–	–
COc1ccc(C2SCCC(=O)N2CCCNc2ccnc3cc(Cl)ccc23)cc1 (centres undefined)	14.3 mm	14.2 mm	23.3 mm	32%	14.3 mm	14.1 mm	14.2 mm	14.1 mm	24.2 mm	24.4 mm	24.1 mm	–	–	–	–	–	–	–	–
O=C1CCSC(c2ccco2)N1CCCNc1ccnc2cc(Cl)ccc12 (centres undefined)	14.2 mm	14.1 mm	23.5 mm	38.5%	13.7 mm	14.2 mm	14 mm	14.3 mm	24.1 mm	24.1 mm	24.2 mm	–	–	–	–	–	–	–	–
O=C1CCSC(c2cccc(O)c2)N1CCCNc1ccnc2cc(Cl)ccc12 (centres undefined)	14.1 mm	13.8 mm	–	39.5%	13.9 mm	14 mm	13.9 mm	14.3 mm	–	24.3 mm	–	–	23.9 mm	–	–	–	–	–	–
CC1COc2c(N3CCN(C)CC3)c(F)cc3c(=O)c(C(=O)O)cn1c23 (centres undefined) [OFLOXACIN]	–	–	–	–	–	–	–	–	–	–	–	–	–	20.8 mm	20.3 mm	21.5 mm	21.7 mm	20.3 mm	20.7 mm
O=C1CCSC(c2ccccc2F)N1CCCNc1ccnc2cc(Cl)ccc12 (centres undefined)	14.3 mm	18.8 mm	–	39%	14.1 mm	14.3 mm	14.3 mm	14.2 mm	–	–	23.9 mm	–	–	–	–	–	–	–	–
Cc1ccc(C2SCCC(=O)N2CCCNc2ccnc3cc(Cl)ccc23)s1 (centres undefined)	13.9 mm	14.2 mm	23.9 mm	22%	13.9 mm	13.9 mm	14.2 mm	14 mm	23.9 mm	–	23.9 mm	–	–	–	–	–	–	–	–
CCC1SCCC(=O)N1CCCNc1ccnc2cc(Cl)ccc12 (centres undefined)	13.5 mm	13.1 mm	23.2 mm	18.5%	13.5 mm	13.2 mm	13.7 mm	12.9 mm	23.1 mm	23.4 mm	23.1 mm	–	23.1 mm	–	–	–	–	–	–
